The text below walks through data of patent US9962360B2, “Compositions and methods for enhancing hair growth, promoting skin regeneration, and wound healing” (The Hospital for Sick Children, priority 2014, dated 2018).

The test system of assay [1] is back skin wound of C57/B16 mice. Briefly: Full Thickness Biopsy Punch Wound model, topical application. Particulars: for Ki67-positive proliferating dermal cells at the leading edge of the newly formed dermis: 7 days post-injury; for dermal tissue regeneration (layer of new dermal tissue) / epithelial gap / wound width: day 9, morphometric analysis; for CD31-positive blood vessels in the wound bed: leading edge of the newly formed dermis; for mice fully healed on day 7: topical daily, day 7 post-wounding, none of the vehicle treated controls.
Procedure: The effects of Alp and TM were further validated in in vivo rodent models. The model used was a Full Thickness Biopsy Punch Wound performed on the back skin of middle-aged (9 months old) C57/B16 mice (FIGS. 2A-2I). In these experiments, the hair on the back skin was shaved to expose skin and a 6 mm diameter wound was performed with a biopsy punch. Alp, TM, or vehicle were reconstituted in a composition of water-ethanol-propylene glycol (PG) and applied daily around the wound for the duration of 9 days. Topical analysis was performed to assess the degree of wound closure as well as morphometric analysis. For the analysis of wound closure, digital photographs were taken at day 0, 3, 7, and 9 post wounding. A ruler was used to calibrate the images and the wound margins were manually outlined. The wound closure rate was calculated as a percentage of the wound size on the day of surgery as previously reported in Johnston et al., Stem Cell Reports. […] Morphometric analyses of wound parameters were performed on hematoxylin and eosin-stained paraffin tissue sections from the central portion of the wound bed. Sections were scanned and images were stitched together to show the full wound bed. Morphometric analysis of different parameters was performed as described previously in Johnston et al., supra.

The test system of assay [2] is CREB. Description: Western blot of phosphorylated, activated CREB in SKPs. Particulars: 100 nM.
The test system of assay [3] is Akt1. Briefly: Western blot of phosphorylated, activated Akt1 in SKPs. Particulars: 100 nM.
Assay [4] deals with SKPs. Briefly: 7 day sphere assay with MEK inhibition. Particulars: with 100 nM trametinib.
The test system of assay [5] is SKPs. Briefly: Clonal density assay in methylcellulose (SKPs self renewal and proliferation). It counts as cell-based. Particulars: for sphere number versus control / sphere size versus control: 100 nM, scored after 14 days, 2,500 cells/mL, 1.6% methylcellulose; for sphere numbers, comparison with latanoprost: treatment for 14 days (FIG. 1L). The text has this:
Finally, SKP proliferation was directly measured.

The test system of assay [6] is SKPs. Briefly: Sphere forming assay of SKPs isolated from topically treated wound bed or skin. Particulars: in vivo topical application.
Procedure: To assess whether the effects of topical application of Alp and TM were specific and due to recruitment of SKPs in vivo, an experiment was performed in which the drugs were applied topically for one week on the back skin of aged wounded or not wounded mice. The wound bed or control skin was dissected and SKPs were isolated and allowed to form spheres. Secondary SKP spheres were then used in a sphere forming assay.
Assay [7] deals with human SKPs. Description: Dose response sphere forming assay in human SKPs cultures. Particulars: for human SKPs sphere number: 100 nM; for validation of hits in dose response sphere forming assays: secondary screens, rodent and human SKPs cultures.
The test system of assay [8] is ERK1/2. Description: Western blot of phosphorylated, activated ERK1/2 in SKPs. Particulars: 100 nM, SKPs cultured in FGF2 and EGF.
Assay [9] has as its system GSK3beta. Briefly: Western blot of phosphorylated, activated GSK3beta in SKPs. Particulars: 100 nM.
The subject of assay [10] is back skin of mice. Description: Skin assays: dermal thickness and proliferation after topical application. Particulars: for number of Ki67 positive proliferating cells in the dermis: one week of topical treatment; for dermal thickness: three weeks of topical treatment.
Procedure: Drugs were applied daily on the depilated area for the duration of three weeks. […] In the skin assays, the back hair of mice was shaved to expose skin and drugs were topically applied for the duration of one or three weeks. Skin morphology was then assessed by analyzing dermal thickness and proliferation.
The subject of assay [11] is neonatal rat SKPs. Briefly: Secondary sphere formation assay / dose-response with rat SKPs. Particulars: for rat SKPs sphere number: 100 nM, neonatal rat SKPs; for sphere numbers, dose-response curve: rat SKPs.
Procedure: Alp and TM were further characterized by dose-response curves with rat SKPs. […] A clonal density assay was also performed to validate the effect of drugs on SKPs self renewal and proliferation. As previously described in Jinno et al., Stem Cells 28:2027-2040, 2010, SKPs were dissociated and plated at 2,500 cells/mL in medium containing 1.6% methylcellulose. Cells were then treated with 100 nM of Alp, TM, Alp and TM, or DMSO and sphere formation was scored after 14 days. […] For comparison, cells were also treated with latanoprost (Latan), a prostaglandin (PGF2) that is bioactive in rodent and human skin. […] Finally, SKP proliferation was directly measured. Rat SKPs were cultured for 3-4 days, treated with Alp or TM daily for a further 2 days, and immunostained with the proliferation marker Ki67.
For assay [12], the system named is STAT3. Briefly: Western blot of phosphorylated, activated STAT3 in SKPs. Particulars: 100 nM.
Assay [13] relates to Rat SKPs. Briefly: Ki67 immunostaining of rat SKP spheres. Particulars: rat SKPs cultured 3-4 days, treated daily for a further 2 days.
Procedure: Finally, SKP proliferation was directly measured. Rat SKPs were cultured for 3-4 days, treated with Alp or TM daily for a further 2 days, and immunostained with the proliferation marker Ki67.

For `CCCCC[C@H](O)/C=C/[C@H]1[C@H](O)CC(=O)[C@@H]1CCCCCCC(=O)O` [Alp, alprostadil], in [1], the “Ki67-positive proliferating dermal cells at the leading edge of the newly formed dermis” value is on record as “increased”, the “dermal tissue regeneration (layer of new dermal tissue)” value is “enhanced”, the epithelial gap entry was “significantly smaller” and the wound width entry was “significantly smaller”. Moreover, in [1], the “CD31-positive blood vessels in the wound bed” value is “increased” and the “mice fully healed on day 7” value is reported as “almost half”. The “phosphorylated, activated CREB compared to control” value in [2] is listed as “neither Alp nor TM increased”. Moreover, the “phosphorylated, activated Akt1 compared to control” value in [3] was “neither Alp nor TM increased”. In addition, in [4], the “compensation of the trametinib-induced decrease in sphere number” value is “neither TM nor Alp compensated”. In [5], the “sphere number versus control” value is recorded as “robust increase”; the “sphere size versus control” value is recorded as “robust increase”; the “sphere numbers, comparison with latanoprost” value (from here on “sphere numbers, comparison”) is listed as “significant increase”. In assay [6], the “long term self-renewal of SKPs” value is “enhance”. Further, in assay [7], the “human SKPs sphere number” value is “increase” and the “validation of hits in dose response sphere forming assays” value (“validation of hits” for short) is “confirmed”. Besides, in assay [8], the “increase of ERK1/2 phosphorylation over basal levels” value is listed as “approximately two-fold”. The “phosphorylated, activated GSK3beta compared to control” value in [9] is recorded as “neither Alp nor TM increased”. Further, in assay [10], the “number of Ki67 positive proliferating cells in the dermis” value is recorded as “increased” and the dermal thickness result is on record as “increase”. Further, in [11], the “rat SKPs sphere number” value is on record as “increase” and the “sphere numbers, dose-response curve” value is recorded as “increased in a dose-dependent fashion”. Besides, the “phosphorylated, activated STAT3 compared to control” value in assay [12] is recorded as “neither Alp nor TM increased”. In addition, in assay [13], the “increase of Ki67-positive sphere cells” value was “approximately 60%”.

As for `O=c1c(O)c(-c2ccc(O)cc2)oc2cc(O)cc(O)c12` [Kae, kaempferol], in assay [7], the “human SKPs sphere number” value was “increase” and the “validation of hits” value is recorded as “confirmed”. Also, the “rat SKPs sphere number” value in assay [11] was “increase”.

For `CC(C)OC(=O)CCC/C=C\C[C@@H]1[C@@H](CC[C@@H](O)CCc2ccccc2)[C@H](O)C[C@@H]1O` [Latan, latanoprost], in assay [5], the “sphere numbers, comparison” value is reported as “significant increase”.

In the case of `CC[N+](CC)(CC)CCOc1ccc(/C=C/c2ccccc2)cc1` [MG 624], in [7], the “human SKPs sphere number” value was “increase” and the “validation of hits” value is given as “confirmed”. In [11], the “rat SKPs sphere number” value was “increase”.

Regarding `CCCCOc1ccc(OCCCN2CCOCC2)cc1` [Pram, pramoxine], in assay [7], the “human SKPs sphere number” value is “increase” and the “validation of hits” value is recorded as “confirmed”. For the same molecule, in [11], the “rat SKPs sphere number” value is on record as “increase”.

As to trimebutine maleate [TM], in assay [1], the “Ki67-positive proliferating dermal cells at the leading edge of the newly formed dermis” value is on record as “increase”, the “dermal tissue regeneration (layer of new dermal tissue)” value is recorded as “enhanced”, the epithelial gap result is “significantly smaller” and the wound width entry is “significantly smaller”. Further, in assay [1], the “CD31-positive blood vessels in the wound bed” value was “increased” and the “mice fully healed on day 7” value is reported as “almost half”. For the same molecule, the “phosphorylated, activated CREB compared to control” value in assay [2] is recorded as “neither Alp nor TM increased”. The “phosphorylated, activated Akt1 compared to control” value in assay [3] was “neither Alp nor TM increased”. In assay [4], the “compensation of the trametinib-induced decrease in sphere number” value is on record as “neither TM nor Alp compensated”. In assay [5], the “sphere number versus control” value was “robust increase”; the “sphere size versus control” value is recorded as “robust increase”; the “sphere numbers, comparison” value was “significant increase”. Further, the “long term self-renewal of SKPs” value in assay [6] is listed as “enhance”. Moreover, in assay [7], the “human SKPs sphere number” value is on record as “increase” and the “validation of hits” value is “confirmed”. Also, the “increase of ERK1/2 phosphorylation over basal levels” value in assay [8] was “approximately two-fold”. Also, the “phosphorylated, activated GSK3beta compared to control” value in assay [9] is on record as “neither Alp nor TM increased”. Besides, in assay [10], the “number of Ki67 positive proliferating cells in the dermis” value was “increased” and the dermal thickness result is given as “increase”. Besides, in assay [11], the “rat SKPs sphere number” value was “increase” and the “sphere numbers, dose-response curve” value is reported as “increased in a dose-dependent fashion”. Also, the “phosphorylated, activated STAT3 compared to control” value in [12] was “neither Alp nor TM increased”. Also, the “increase of Ki67-positive sphere cells” value in [13] is given as “approximately 60%”.
